Assay [1] deals with HL-60 human promyelocytic leukemia cells. Particulars: cited from earlier work.
The next assay has as its system rabbit heart. Particulars: application after the onset of cardiac ischemia, rabbit infarct model; cited from earlier work.
In a further assay the test system is rabbit hearts. Nature of the assay: Rabbit heart regional ischemia/reperfusion, infarct size as percentage of risk zone. Type of assay: in vivo, New Zealand White rabbits. The note with it: ischemia alone, FIG. 9. On the procedure:
New Zealand White rabbits of either sex weighing nearly 3 Kg were anesthetized with intravenous sodium pentobarbital (30 mg/kg). Throughout the experiment, additional anesthesia was administered as needed (5-15 mg pentobarbital/15 min) A heating pad maintained rectal temperature between 38.5 and 39.5-C. Animals were intubated through a tracheotomy and ventilated with 100% O2 with the aid of a mechanical ventilator. To administer drugs, a PE 50 catheter filled with heparinized saline was placed in an ear vein. After a left thoractomy, a prominent branch of the left coronary artery was surrounded with a suture (2-0 silk) to form a snare. The rabbits were allowed to stabilize for 15 min after surgery before the protocols were begun. […] The coronary artery was re-occluded, and […] diameter green fluorescent microspheres (Duke Scientific Corp., Palo Alto, Calif.) were infused into the perfusate to demarcate the ischemic zone as the area of tissue without fluorescence (region at risk). […] The areas of infarct and risk zone were determined by planimetry of each slice and volumes were calculated by multiplying each area by its slice thickness and summing them for each heart. Infarct size is expressed as a percentage of the risk zone. […] All data are expressed as mean TS.E.M. One-way analysis of variance (ANOVA) combined with Tukey's posthoc test was performed on baseline hemodynamic and infarct data. […]

Like-named read-outs stand apart in the source and are kept apart here.

Consider `CNC(=O)[C@H]1O[C@@H](n2cnc3c(NCc4cccc(I)c4)nc(Cl)nc32)[C@H](O)[C@@H]1O` [C1-IB-MECA], for which the “apoptosis in HL-60 cells, low concentrations” value in assay [1] (10 nM or 1 μM) is on record as “protected against”. In addition, the “apoptosis in HL-60 cells” value in assay [1] (10-30 μM) is given as “induced apoptosis”.
With `N#Cc1c(N)nc(SCC(N)=O)c(C#N)c1-c1ccc(OCC2CC2)cc1` [BAY-60-6583], the “reduction of the infarct size” value with rabbit heart is listed as “effective”.
Consider `CNC(=O)[C@H]1O[C@@H](n2cnc3c(NCc4cccc(I)c4)ncnc32)[C@H](O)[C@@H]1O` [IB-MECA], for which the “apoptosis in HL-60 cells” value in assay [1] (30 and 60 μM) was “induced apoptosis”.
For the molecule `CCNC(=O)[C@H]1O[C@@H](n2cnc3c(N)ncnc32)[C@H](O)[C@@H]1O` [NECA, 5′-N-ethylcarboxamidoadenosine], the “protection (inhibition of infarct size)” value with rabbit hearts came out at 50%.

The record behind these values is patent US20110262456A1, “METHOD OF TREATING ISCHEMIA REPERFUSION INJURY” (priority 2008, published 2011).
